# Key:
# [1] = DPPH scavenging method (antioxidant activity); settings: reference value used for FIG. 8
# Method: The antioxidant activity of each of the samples was tested using the DPPH scavenging method (i.e. by using the stable free radical 2,2-Diphenyl-1-(2,4,6-trinitrophenyl) hydrazyl as a substrate). Whilst the DPPH method is not a direct anti-inflammatory assay, antioxidant activity has been an indication of anti-inflammatory activity in many study cases. The DPPH solution was prepared […] and kept in the freezer in the dark before use. The positive control was ascorbic acid prepared as 0.1 mg/ml in a buffer containing citric acid and NaHPO4 (pH 5). Equal amounts of sample solution and DPPH solution were added together, and the assay tube or plate was incubated for 30 minutes in the dark, followed by absorbance measurement at 517 nm on a spectrophotometer. In the blank control experiment of each sample, DPPH was replaced with ethanol. In the DPPH blank control experiment, the sample was replaced with the media (water or solvent) the sample was prepared in.
# The scavenging activity (DPPH inhibition %) is calculated by percentage of the absorbance from the sample versus the DPPH only:
# All samples were tested at a concentration of 10 mg/ml.
# [2] = system: activated neutrophils; experiment: Inhibition of superoxide production by PMA-activated neutrophils (WST-1 reduction), anti-inflammatory activity; format: cell-based; settings: Rattus norvegicus, Neutrophil
# Method: The relative anti-inflammatory properties of the test samples were determined by establishing their abilities to inhibit the activation of neutrophils as measured by the production of superoxide. The efficacy of the test samples was referenced against Aspirin, as well as an un-supplemented control group.
# Samples 1, 2 and 3 (actually numbered samples 3, 4 and 5 in the above table) were produced from the same batch of mussels. Each of the above test samples was extracted with ethanol at a ratio of 1:10 (w:v) and the residues were then extracted with distilled water at the same ratio, so that the activity of both the lipid rich or hydrophobic fraction and the hydrophilic or aqueous fraction of each of the test samples could be tested. The experimental procedure for determining the effects of the test samples on inflammation was based on the methods described in Tan, A S and Berridge, MV (2000). Superoxide produced by activated neutrophils efficiently reduces the tetrazolium salt, WST-1 to produce a soluble formazan: a simple colorimetric assay for measuring respiratory burst activation and for screening of anti-inflammatory agents. J Immunol. Meth. 238: 59-68. Neutrophils were harvested from rat whole blood and activated with phorbol 12-myristate 13-acetate (PMA). The activated neutrophils were then incubated and cultured in the presence of each of the test samples and the controls. The reduction of the WST-1 dye was measured to determine the products of superoxide. The control group was set at 100% activity (0% inhibition) and the inhibition of all samples were compared to this reference.
# The ethanol and water extracts (lipid rich and hydrophilic fractions) from each of the test samples were tested at 400 μg/ml for their anti-inflammatory activity based on the inhibition of superoxide by activated neutrophils. The yields of each extraction were used along with the activity of each to obtain an estimate for the total activity within each of the test samples for the two fractions.
IC50 of Vitamin E equivalent [1] [µg/mL],Molecule,"IC50 ([2]; reference value used for FIG. 7, read-out: IC50 of aspirin equivalent) [µg/mL]","inhibition at 100 µg/mL ([2]; reference, 100 μg/ml) [%]","inhibition at 200 µg/mL ([2]; reference, 200 μg/ml) [%]","inhibition at 400 µg/mL ([2]; reference, 400 μg/ml) [%]"
9.26,Vitamin E,,,,
,CC(=O)Oc1ccccc1C(=O)O [Aspirin],400,16.5,48.1,50.2

# From US20190350236A1, “METHOD OF PROCESSING SHELLFISH AND RESULTING COMPOSITIONS” (SANFORD LIMITED, priority 2016, published 2019)
